Data set [1] can be described thus: Plasma clearance in dog at 0.1 mg/kg, iv and 3 mg/kg, po. Type of data set: ADME, organism-based, Canis lupus familiaris.
Data set [2] can be described thus: Half life in dog at 0.1 mg/kg, iv and 3 mg/kg, po. Format: ADME, organism-based, Canis lupus familiaris. The following applies: in vivo.
Data set [3] in a line: Unbound clearance in rat at 1 mg/kg, iv and 3 mg/kg, po. Format: ADME, organism-based. The note with it: in vivo.
Data set [4] in a line: Volume of distribution at steady state in rat at 1 mg/kg, iv and 3 mg/kg, po. Type of data set: ADME, organism-based. The following applies: in vivo, read-out: Vdss.
A short description of data set [5]: Oral bioavailability in rat at 3 mg/kg. Type of data set: ADME, organism-based. The note with it: in vivo.
Data set [6] can be described thus: Unbound clearance in dog at 0.1 mg/kg, iv and 3 mg/kg, po. Type of data set: ADME, organism-based, Canis lupus familiaris. The following applies: in vivo.
Data set [7] can be described thus: Volume of distribution at steady state in dog at 0.1 mg/kg, iv and 3 mg/kg, po. Format: ADME, organism-based, Canis lupus familiaris. The following applies: in vivo, read-out: Vdss.
Data set [8] can be described thus: Oral bioavailability in dog at 3 mg/kg. Format: ADME, organism-based, Canis lupus familiaris. The note with it: in vivo.
A short description of data set [9]: Unbound average plasma concentration in human at >450 mg, bid. Type of data set: ADME.
The next data set is filed under the species Homo sapiens. Put plainly: Reduction in serum ureate in human at >450 mg, bid. Type of data set: functional. More on the design: scale not given: the % may be the effect or the level left.
A short description of data set [10]: Lipophilicity, log D of the compound. Format: physicochemical. The note with it: octanol/water.
Data set [11] in a line: Drug level in human liver microsomes treated with 4-(3-chloro-4-(hydroxymethyl)phenoxy)-3-cyano-N-(5-fluoropyridin-2-yl)benzenesulfonamide. Type of data set: ADME. On the technique in general: Liver microsomes are a subcellular fraction often used to study metabolism.
Data set [12] is described as follows: Drug level in human hepatocytes treated with 4-(3-chloro-4-(hydroxymethyl)phenoxy)-3-cyano-N-(5-fluoropyridin-2-yl)benzenesulfonamide. Type of data set: ADME, cell-based, Hepatocyte.

In general, half-life refers to how long it takes for the measured level to halve. As usually defined, the bioavailability is dose-corrected exposure relative to a reference, in per cent. The logD is lipophilicity at a set pH, counting ionised and neutral species. `Nc1[nH]ncc1-c1cc(Cl)ccc1Oc1cc(F)c(S(=O)(=O)Nc2cscn2)cc1Cl` [PF-05089771] returned a clearance in data set [1] of 4.8 mL/min/kg. Further, the half-life in data set [2] was 1.4 h. Moreover, the results for the CL free in [3] and in [6] were 447 mL/min/kg and 641 mL/min/kg, respectively. The Vd in data set [4] amounted to 1.3 L/kg; in [7], 0.31 L/kg. Further, the results for the bioavailability in data set [5] and in data set [8] were 27% and 35%, respectively. In data set [9], the “Cp(f)” value stood at 60 nM. In the data set listed under Homo sapiens, the Activity amounted to 50%. Further, the logD in data set [10] was found to be 2.6.

In the case of `N#Cc1cc(S(=O)(=O)Nc2ccc(F)cn2)ccc1Oc1ccc(C(=O)O)c(Cl)c1`, the Drug metabolism entry in data set [11] and in [12] was “Metabolite_Detected” in each case.

Source of the values: ChEMBL document CHEMBL3853264 (Medchemcomm, 2016).
